In PubChem BioAssay (NCI):
Values joined by “and” are separate entries in the source; they are usually repeats but may differ in a detail not shown here. Identical values can stand only once.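 Growth conditions: 96-well plates. Treatment: test compound, 48 hours, 5 concentrations. Analysis: linear interpolation between bracketing concentrations; unreached endpoints set to highest concentration. The concentration for 50% growth inhibition is given as GI50. At the TGI there is no net growth.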

Assays:
Assay in all cases: inhibition of tumour cell growth, NCI panel, 48 h
[1] = system: K-562 leukemia
[2] = system: MOLT-4 leukemia
[3] = system: UACC-257 melanoma
[4] = system: MDA-MB-435
[5] = system: HT29 colon
[6] = system: SW-620 colon
[7] = system: NCI-H226 lung
[8] = system: SK-MEL-5 melanoma
[9] = system: MALME-3M melanoma
[10] = system: LOX IMVI melanoma
[11] = system: HCT-15 colon
[12] = system: SNB-75 CNS
[13] = system: UO-31 renal
[14] = system: SK-MEL-2 melanoma
[15] = system: IGROV1 ovarian
[16] = system: CCRF-CEM leukemia
[17] = system: A498 renal
[18] = system: NCI-H460 lung
[19] = system: CAKI-1 renal
[20] = system: HOP-92 NSCLC
[21] = system: BT-549 breast
[22] = system: HS 578T breast
[23] = system: U251 CNS
[24] = system: MDA-MB-231 breast
[25] = system: ACHN renal
[26] = system: SK-MEL-28 melanoma
[27] = system: SF-539 CNS
[28] = system: HL-60(TB) leukemia
[29] = system: DU-145 prostate
[30] = system: M14 melanoma
[31] = system: MCF7 breast
[32] = system: OVCAR-3 ovarian
[33] = system: PC-3 prostate
[34] = system: SF-295 CNS
[35] = system: NCI-H522 lung
[36] = system: HOP-62 NSCLC
[37] = system: SK-OV-3 ovarian
[38] = system: UACC-62 melanoma
[39] = system: SNB-19 CNS
[40] = system: HCT-116 colon
[41] = system: OVCAR-8 ovarian
[42] = system: SN12C renal
[43] = system: SF-268 CNS
[44] = system: RXF 393 renal
[45] = system: KM12 colon
[46] = system: EKVX NSCLC
[47] = system: TK-10 renal
[48] = system: A549 NSCLC
[49] = system: 786-0 renal
[50] = system: T-47D breast
[51] = system: COLO 205 colon
[52] = system: OVCAR-4 ovarian

CCN(CC)CCCC(CO)Nc1ccnc2cc(Cl)ccc12 (centres undefined)
GI50 [1]: 30.4 µM and 36.3 µM
TGI [1]: > 100 µM
GI50 [2]: 31 µM and 34.3 µM
TGI [2]: > 100 µM
GI50 [3]: 18.1 µM and 19.2 µM
TGI [3]: 33 µM and 35.2 µM
GI50 [4]: 19.5 µM and 20.5 µM
TGI [4]: 42.7 µM and 43.2 µM
GI50 [5]: 32.2 µM and 64.3 µM
TGI [5]: > 100 µM
GI50 [6]: 50.6 µM and > 100 µM
TGI [6]: > 100 µM
GI50 [7]: > 100 µM and 36.5 µM
TGI [7]: > 100 µM and 92.8 µM
GI50 [8]: 20 µM and 18 µM
TGI [8]: 44.8 µM and 37.6 µM
GI50 [9]: 29.4 µM and 26.5 µM
TGI [9]: 59.1 µM and 49.9 µM
GI50 [10]: 30.1 µM and 27.6 µM
TGI [10]: 59.6 µM and 51.5 µM
GI50 [11]: > 100 µM
TGI [11]: > 100 µM
GI50 [12]: > 100 µM
TGI [12]: > 100 µM
GI50 [13]: > 100 µM
TGI [13]: > 100 µM
GI50 [14]: > 100 µM and 90.2 µM
TGI [14]: > 100 µM
GI50 [15]: > 100 µM
TGI [15]: > 100 µM
GI50 [16]: 45.4 µM and 15 µM
TGI [16]: > 100 µM and 39.8 µM
GI50 [17]: > 100 µM and 32.7 µM
TGI [17]: > 100 µM
GI50 [18]: 66.2 µM and 82.7 µM
TGI [18]: > 100 µM
GI50 [19]: 32.7 µM and 30.7 µM
TGI [19]: > 100 µM and 85.5 µM
GI50 [20]: 22.6 µM and 20.5 µM
TGI [20]: > 100 µM and 88.5 µM
GI50 [21]: 33.8 µM and 30.8 µM
TGI [21]: > 100 µM
GI50 [22]: > 100 µM and 72.5 µM
TGI [22]: > 100 µM
GI50 [23]: 67.6 µM and 70.8 µM
TGI [23]: > 100 µM
GI50 [24]: 70.3 µM and 57.1 µM
TGI [24]: > 100 µM
GI50 [25]: > 100 µM and 54.1 µM
TGI [25]: > 100 µM
GI50 [26]: 25 µM and > 100 µM
TGI [26]: 57.5 µM and > 100 µM
GI50 [27]: 15.9 µM and 17.3 µM
TGI [27]: 35.4 µM and 35.3 µM
GI50 [28]: 24.4 µM and 25 µM
TGI [28]: > 100 µM
GI50 [29]: > 100 µM
TGI [29]: > 100 µM
GI50 [30]: 16.6 µM and 17 µM
TGI [30]: 30.9 µM and 31.2 µM
GI50 [31]: 47.9 µM and 56.1 µM
TGI [31]: > 100 µM
GI50 [32]: 28.3 µM and 32.6 µM
TGI [32]: 77.1 µM and > 100 µM
GI50 [33]: 66.2 µM and 34.4 µM
TGI [33]: > 100 µM
GI50 [34]: 18.9 µM and 18 µM
TGI [34]: 46.6 µM and 45.3 µM
GI50 [35]: 56.9 µM and > 100 µM
TGI [35]: > 100 µM
GI50 [36]: 82.4 µM and 68.2 µM
TGI [36]: > 100 µM
GI50 [37]: > 100 µM and 91.5 µM
TGI [37]: > 100 µM
GI50 [38]: 22.2 µM and 37.7 µM
TGI [38]: 49.6 µM and > 100 µM
GI50 [39]: > 100 µM
TGI [39]: > 100 µM
GI50 [40]: 21.9 µM and 26.3 µM
TGI [40]: 73.7 µM and 80.1 µM
GI50 [41]: 38.5 µM and 56.1 µM
TGI [41]: > 100 µM
GI50 [42]: > 100 µM and 48.5 µM
TGI [42]: > 100 µM
GI50 [43]: 64.3 µM and 75.7 µM
TGI [43]: > 100 µM
GI50 [44]: 35.8 µM and 41.1 µM
TGI [44]: > 100 µM
GI50 [45]: 49.1 µM and 66.8 µM
TGI [45]: > 100 µM
GI50 [46]: 54.5 µM and 74.2 µM
TGI [46]: > 100 µM
GI50 [47]: 46 µM and 32.4 µM
TGI [47]: > 100 µM
GI50 [48]: 50.9 µM and 73.7 µM
TGI [48]: > 100 µM
GI50 [49]: 54.9 µM and 42.3 µM
TGI [49]: > 100 µM
GI50 [50]: > 100 µM
TGI [50]: > 100 µM
GI50 [51]: 39.9 µM and 34.5 µM
TGI [51]: > 100 µM
GI50 [52]: > 100 µM and 58.2 µM
TGI [52]: > 100 µM
